# Experimental data: patent EP2805714B1, “STABLE PHARMACEUTICAL COMPOSITION COMPRISING AMORPHOUS ROSUVASTATIN CALCIUM” (Antibiotice S.A., priority 2013, dated 2014)
# Test: Stability test according to ICH guidelines, related substances by in-house HPLC method
# Type: physicochemical
# Settings: rosuvastatin calcium amorphous active substance (raw material)
# Procedure: We performed stability tests on these tablet compositions, according to the method described in ICH guidelines. The tablets were packed in opaque OPA/Al/PVC-Al blisters with very low oxygen and humidity transmission rates. Using a HPLC in house method, we measured the level of lactone and total impurities formed after a period of storage of 12 months at 25°C/60%RH (normal conditions, A1) and of 6 months at 40°C/[…]. The results were compared with those obtained for the tablets at the moment of release (TO) and those obtained for the rosuvastatin calcium amorphous active substance (Table 2). Table 2. Related substances values for the tested formulations
structure (smiles),measurement,value
"CC(C)c1nc(N(C)S(C)(=O)=O)nc(-c2ccc(F)cc2)c1/C=C/[C@@H](O)C[C@@H](O)CC(=O)[O-].CC(C)c1nc(N(C)S(C)(=O)=O)nc(-c2ccc(F)cc2)c1/C=C/[C@@H](O)C[C@@H](O)CC(=O)[O-].[Ca+2] [RC amorphous, bis [(E)-7-[4-(4-fluorophenyl)-6-isopropyl-2-[methyl(methylsulfonyl)amino]pyrimidin-5-yl]-(3R,5S)-dihydroxyhept-6-enoic acid] calcium salt]","Lactone, %",0.010%
same,"Total impurities, %",0.150%
